Reference: patent US20230372277A1, “COMPOSITION FOR PROMOTING HAIR GROWTH AND/OR INHIBITING HAIR LOSS” (priority 2020, published 2023)
Marks after values point to notes of the source that are not given here.

Tests used:
testosterone = assay: Testosterone concentration in plasma (ELISA kit) of testosterone-injected rats; format: in vivo, male wistar albino rats; conditions: for concentration of testosterone in plasma (FIG. 4a): testosterone-injected rats, compounds or mixture oral 10 mg/kg daily 21 days
Protocol: (§1) For 21 days, the testosterone solution and broccoli extract, avocado extract or broccoli and avocado extract were administered, and on the next day, before skin samples were collected, plasma from rats was extracted and the concentration of testosterone and DHT were measured using a testosterone and DHT ELISA kit (Arigo Biolaboratories, Taiwan) according to the manufacturer's instructions.

[1] = tested on: dihydrotestosterone (DHT); assay: DHT concentration in plasma (ELISA kit) of testosterone-injected rats; format: in vivo, male wistar albino rats; conditions: for concentration of DHT in plasma (FIG. 4b): testosterone-injected rats, compounds or mixture oral 10 mg/kg daily 21 days
Protocol: as §1

hair follicles [2] = assay: Shape and length of hair follicles in haematoxylin and eosin stained dorsal skin; format: in vivo, male wistar albino rats; conditions: testosterone-injected rats; for length of hair follicles (FIG. 5): compounds or mixture oral 10 mg/kg daily 21 days, compared to negative control (negative control compared to normal group)
Protocol: By staining the skin tissue of experimental animals, the shape change of hair follicles was investigated. […] After 24 hours, the skin sample was soaked in paraffin wax and sectioned to a uniform thickness of 10 μm, and hair follicles were stained with haematoxylin and eosin.

hair follicles [3] = assay: Density of hair follicles in skin (number in 1 mm^2); format: in vivo, male wistar albino rats; conditions: testosterone-injected rats; for Rate of change compared to normal group (%) (density of hair follicles): Table 7, Equation 1, compounds or mixture oral 10 mg/kg daily 21 days
Protocol: The density of hair follicles was measured by counting the number of hair follicles in a unit area (1 mm^2).
Rate of change compared to normal group=(hair follicle density of negative control group or experimental group−hair follicle density of normal group)/hair follicle density of normal group (Equation 1)
(§2) The normal control group (control; normal group) is a group in which neither testosterone nor the extract is administered, and the negative control group (Testosterone; T) is a group in which only testosterone is administered.
as §2
as §2, with “As a comparative group, the mixture was administered by the same method, and the administration method was a method of intraperitoneal administration (IP). The” for “The”

hair follicles [4] = assay: Ratio of anagen stage and telogen stage of hair follicles in skin; conditions: for Rate of change compared to normal group (anagen/telogen ratio) / Anagen / Telogen / Anagen/telogen ratio: testosterone-injected rats
Protocol: Male wistar albino rats weight 180 to 240 g, February to March age were bred under the conditions of a constant light-dark cycle in which light was applied from 8 am to 8 pm, a temperature of 22 to 25° C., and a relative humidity of 60%. For the feed of experimental animals, a general pellet dry feed was used, and feed and water were allowed to be consumed at all times.
In addition, the broccoli extract and/or avocado extract prepared in Example 1 were orally administered for a total of 21 days daily so as to be a dose of 100 mg per 1 kg of the body weight of each experimental animal (in case of coadministration group, broccoli extract 67 mg/kg+avocado extract 33 mg/kg).
Rate of change compared to normal group=(anagen/telogen ratio of negative control group or experimental group−anagen/telogen ratio of normal group)/anagen/telogen ratio of normal group (Equation 2)

[5] = rats injected s.c. with testosterone 21 days, extracts oral 100 mg/kg daily 21 days (mixture BE 67 + AE 33 mg/kg), negative control compared to normal group
[6] = Table 7, compounds or mixture (SFN 8 + I3C 1 + β-sitosterol 1 mg/kg) oral 10 mg/kg daily 21 days, mean ± SEM, n = 15
[7] = Table 8, Equation 2, compounds or mixture oral 10 mg/kg daily 21 days
[8] = Table 8, compounds or mixture oral 10 mg/kg daily 21 days
[9] = Table 8, compounds or mixture oral 10 mg/kg daily 21 days, listed as Group B, 10 mg/kg
[10] = Table 8, compounds or mixture oral 10 mg/kg daily 21 days, listed as testosterone solution, 10 mg/kg

For `C[C@]12CC[C@H]3[C@@H](CCC4=CC(=O)CC[C@@]43C)[C@@H]1CC[C@@H]2O` [Testosterone, testosterone], which “concentration of testosterone in plasma (FIG. 1a)” value (testosterone; [5]) is on record?
The value was “largely increased”.

And the “concentration of testosterone in plasma (FIG. 4a)” value (testosterone)?
The value was “largely increased”.

And the “concentration of DHT in plasma (FIG. 1b)” value [1, 5]?
The value was “largely increased”.

What about the “concentration of DHT in plasma (FIG. 4b)” value [1] of the same compound?
Its value is “largely increased”.

And the “length of hair follicles (FIG. 5)” value (hair follicles [2])?
The value was “largely reduced”.

And the “shape change of hair follicles (stained photograph, FIG. 2)” value (hair follicles [2]; extracts oral 100 mg/kg daily 21 days, H&E stained dorsal skin)?
Its value is “many hair follicles in the telogen stage were found”.

And the “length of hair follicles (FIG. 3)” value (hair follicles [2]; extracts oral 100 mg/kg daily 21 days, extracts compared to negative control, negative control compared to normal group)?
Its value is “largely reduced”.

And the “Rate of change compared to normal group (hair follicle density)” value (hair follicles [3]; Table 2, Equation 1, extracts oral 100 mg/kg daily 21 days)?
Its value is −30.53%.

And the Hair follicle density (hair follicles [3]; Table 2, number of hair follicles in 1 mm^2, extracts oral 100 mg/kg daily 21 days, mean ± SEM, n = 15)?
The Hair follicle density was 0.91 ± 0.069.

And the Hair follicle density (hair follicles [3]; Table 5, broccoli extracts by extraction solvent, same method as Example 3-2, mean ± standard error)?
Its Hair follicle density is 0.98 ± 0.23.

And the “Rate of change compared to normal group (%) (density of hair follicles)” value (shortened to “Rate of change … (%) (density of hair follicles)”) (hair follicles [3])?
The value was −30.53%.

And the “Density of hair follicles” value (hair follicles [3]; [6])?
The value was 0.91 ± 0.069.

What about the “Rate of change compared to normal group (density of hair follicles)” value (hair follicles [3]; Table 9, Equation 1, mixtures at various mixing ratios, oral 10 mg/kg in total daily 21 days) of the same compound?
The value was −21.6%.

What about the “Density of hair follicles” value (hair follicles [3]; Table 9, SFN:I3C:β-sitosterol mixtures at various mixing ratios, oral 10 mg/kg in total daily 21 days, mean ± standard error) of the same compound?
Its value is 0.98 ± 0.23.

What about the “Rate of change compared to normal group (anagen/telogen ratio)” value (hair follicles [4]; Table 3, Equation 2, extracts oral 100 mg/kg daily 21 days) of the same compound?
The value was −91.23%.

What about the Anagen (hair follicles [4]; Table 3, hair follicles in anagen stage, extracts oral 100 mg/kg daily 21 days, listed as Group 2, 100 mg/kg) of the same compound?
Its Anagen is 14.6.

And the Anagen (hair follicles [4]; Table 3, hair follicles in anagen stage, extracts oral 100 mg/kg daily 21 days, listed as testosterone solution, 100 mg/kg)?
The Anagen was “reduced”.

And the Telogen (hair follicles [4]; Table 3, hair follicles in telogen stage, extracts oral 100 mg/kg daily 21 days, listed as Group 2, 100 mg/kg)?
The Telogen was 85.4.

And the Telogen (hair follicles [4]; Table 3, hair follicles in telogen stage, extracts oral 100 mg/kg daily 21 days, listed as testosterone solution, 100 mg/kg)?
The Telogen was “increased”.

And the Anagen/telogen ratio (hair follicles [4]; Table 3, extracts oral 100 mg/kg daily 21 days)?
The Anagen/telogen ratio was 0.171.

What about the “Rate of change compared to normal group (anagen/telogen ratio)” value (hair follicles [4]; [7]) of the same compound?
Its value is −91.23%.

And the Anagen/telogen ratio (hair follicles [4]; [8])?
The Anagen/telogen ratio was 0.17.

And the Anagen (hair follicles [4]; [9])?
The Anagen was 14.6.

What about the Telogen (hair follicles [4]; [9]) of the same compound?
Its Telogen is 85.4.

And the Anagen (hair follicles [4]; [10])?
The Anagen was “reduced”.

What about the Telogen (hair follicles [4]; [10]) of the same compound?
The Telogen was “increased”.

And the “anagen/telogen ratio reduced compared to the normal group” value (hair follicles [4]; negative control group administered only with the testosterone solution s.c. 21 days)?
The value was “about 91%”.

What does the source list for `OCc1c[nH]c2ccccc12` [indole-3-carbinol]?
concentration of testosterone in plasma (FIG. 4a) (testosterone): significantly reduced; concentration of DHT in plasma (FIG. 4b) [1]: significantly reduced; length of hair follicles (FIG. 5) (hair follicles [2]): increased; Rate of change compared to normal group (%) (density of hair follicles) (hair follicles [3]; 10 mg/kg): about 21%; Rate of change compared to normal group (%) (density of hair follicles) (hair follicles [3]; listed as Group D, 10 mg/kg): +21.37%; Density of hair follicles (hair follicles [3]; [6]): 1.59 ± 0.74; Rate of change compared to normal group (anagen/telogen ratio) (hair follicles [4]; [7]): −54.88%; Anagen/telogen ratio (hair follicles [4]; [8]): 0.87*

What does the source list for `C[S+]([O-])CCCCN=C=S` (stereo not drawn) [sulforaphane]?
concentration of testosterone in plasma (FIG. 4a) (testosterone): significantly reduced; concentration of DHT in plasma (FIG. 4b) [1]: significantly reduced; length of hair follicles (FIG. 5) (hair follicles [2]): increased; Rate of change compared to normal group (%) (density of hair follicles) (hair follicles [3]; 10 mg/kg): about 47%; Rate of change compared to normal group (%) (density of hair follicles) (hair follicles [3]; listed as Group C, 10 mg/kg): +47.33%; Density of hair follicles (hair follicles [3]; [6]): 1.93 ± 0.102; Rate of change compared to normal group (anagen/telogen ratio) (hair follicles [4]; [7]): −47.05%; Anagen/telogen ratio (hair follicles [4]; [8]): 1.03*

For `CC[C@H](CC[C@@H](C)[C@H]1CC[C@H]2[C@@H]3CC=C4C[C@@H](O)CC[C@]4(C)[C@H]3CC[C@]12C)C(C)C` [β-sitosterol], which “concentration of DHT in plasma (FIG. 4b)” value [1] is on record?
The value was “significantly reduced”.

What about the “length of hair follicles (FIG. 5)” value (hair follicles [2]) of the same compound?
Its value is “increased”.

What about the “Rate of change … (%) (density of hair follicles)” value (hair follicles [3]; 10 mg/kg) of the same compound?
The value was “about 68%”.

What about the “Rate of change … (%) (density of hair follicles)” value (hair follicles [3]; listed as Group E, 10 mg/kg) of the same compound?
The value was “+67.56%”.

And the “Density of hair follicles” value (hair follicles [3]; [6])?
The value was 2.195 ± 0.093.
